Measured values published in patent US8481586B2, “Pyrrolo[2,3-a] carbazoles and use thereof as PIM kinase inhibitors” (Centre National de la Recherche Scientifique, priority 2008, dated 2013).
Read-outs that look alike come from different tables or passages of the source.

Experiments:
Type in all cases: biochemical
[1] = test system: AMPK; experiment: kinase panel residual activity test; conditions: compound at 10 μM
Description: (§1) MKK1, ERK 1, ERK 2, JNK1, JNK2, JNK3, p38a MAPK, p38b MAPK, p38g MAPK, p38s MAPK, ERK8, RSK1, RSK2, PDK1, PKBa, PKBb, SGK1, S6K1, PKA, ROCK2, PRK2, PKCa, PKC zeta, PKD1, MSK1, MNK1, MNK2, MAPKAP-K2, MAPKAP-K3, PRAK, CAMKKa, CAMKKb, CAMK1, SmMLCK, PHK, CHK1, CHK2, GSK3b, CDK2/cyclin A, PLK1, PLK1 (Okadaic acid), Aurora B, Aurora C, AMPK, MARK3, BRSK2, MELK, CK1, CK2, NEK2a, NEK6, NEK7, IKKb, PIM-1, PIM-2, PIM-3, SRPK1, MST2, EF2K, HIPK2, HIPK3, PAK-4, PAK5, PAK6, Src, Lck, CSK.

[2] = target: Aurora C (Homo sapiens (Human), UniProt Q9UQB9); experiment: kinase panel residual activity test; conditions: compound at 10 μM
Description: as §1

[3] = target: CHK1 (Homo sapiens (Human), UniProt O14757); experiment: kinase panel residual activity test; conditions: compound at 10 μM
Description: as §1

[4] = target: CHK2 (Homo sapiens (Human), UniProt O96017); experiment: kinase panel residual activity test; conditions: compound at 10 μM
Description: as §1

[5] = test system: CK1; experiment: kinase panel residual activity test; conditions: compound at 10 μM
Description: as §1

[6] = test system: CK2; experiment: kinase panel residual activity test; conditions: compound at 10 μM
Description: as §1

[7] = target: CSK (Homo sapiens (Human), UniProt P41240); experiment: kinase panel residual activity test; conditions: compound at 10 μM
CSK, sequence (P41240 whole entry, species assumed): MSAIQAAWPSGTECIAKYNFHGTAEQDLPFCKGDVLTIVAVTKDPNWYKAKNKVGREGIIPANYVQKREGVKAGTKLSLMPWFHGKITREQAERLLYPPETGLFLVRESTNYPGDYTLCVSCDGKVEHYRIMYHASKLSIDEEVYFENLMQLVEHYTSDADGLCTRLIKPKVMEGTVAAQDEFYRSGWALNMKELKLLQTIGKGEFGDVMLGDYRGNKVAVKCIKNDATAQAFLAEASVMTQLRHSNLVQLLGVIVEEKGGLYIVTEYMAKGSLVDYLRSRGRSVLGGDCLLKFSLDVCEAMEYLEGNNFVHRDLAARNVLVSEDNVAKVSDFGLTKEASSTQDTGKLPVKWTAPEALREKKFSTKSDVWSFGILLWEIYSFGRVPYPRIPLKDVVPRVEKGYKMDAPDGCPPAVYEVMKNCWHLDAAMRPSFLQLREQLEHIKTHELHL
Description: as §1

[8] = target: ERK2 (Homo sapiens (Human), UniProt P28482); experiment: kinase panel residual activity test; conditions: compound at 10 μM
Description: as §1

[9] = target: ERK8 (Homo sapiens (Human), UniProt Q8TD08); experiment: kinase panel residual activity test; conditions: compound at 10 μM
ERK8, sequence (Q8TD08 whole entry, species assumed): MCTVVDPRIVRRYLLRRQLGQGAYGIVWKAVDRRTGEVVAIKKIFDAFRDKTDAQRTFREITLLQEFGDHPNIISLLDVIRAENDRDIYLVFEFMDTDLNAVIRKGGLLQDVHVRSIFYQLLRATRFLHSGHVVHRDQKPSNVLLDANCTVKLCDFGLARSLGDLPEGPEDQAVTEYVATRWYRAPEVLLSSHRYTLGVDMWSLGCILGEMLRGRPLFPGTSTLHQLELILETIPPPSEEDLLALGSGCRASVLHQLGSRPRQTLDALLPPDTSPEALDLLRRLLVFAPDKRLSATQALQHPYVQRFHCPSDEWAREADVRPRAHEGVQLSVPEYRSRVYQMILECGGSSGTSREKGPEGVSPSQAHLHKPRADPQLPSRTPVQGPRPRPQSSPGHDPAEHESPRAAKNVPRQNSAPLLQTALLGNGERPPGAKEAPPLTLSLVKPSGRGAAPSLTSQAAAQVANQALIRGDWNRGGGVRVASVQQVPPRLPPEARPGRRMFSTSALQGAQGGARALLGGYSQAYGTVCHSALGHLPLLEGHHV
Description: as §1

[10] = target: GSK3b (Homo sapiens (Human), UniProt P49841); experiment: kinase panel residual activity test; conditions: compound at 10 μM
Description: as §1

[11] = target: Lck (Homo sapiens (Human), UniProt P06239); experiment: kinase panel residual activity test; conditions: compound at 10 μM
Description: as §1

[12] = target: MELK (Homo sapiens (Human), UniProt Q14680); experiment: kinase panel residual activity test; conditions: compound at 10 μM
MELK, sequence (Q14680 whole entry, species assumed): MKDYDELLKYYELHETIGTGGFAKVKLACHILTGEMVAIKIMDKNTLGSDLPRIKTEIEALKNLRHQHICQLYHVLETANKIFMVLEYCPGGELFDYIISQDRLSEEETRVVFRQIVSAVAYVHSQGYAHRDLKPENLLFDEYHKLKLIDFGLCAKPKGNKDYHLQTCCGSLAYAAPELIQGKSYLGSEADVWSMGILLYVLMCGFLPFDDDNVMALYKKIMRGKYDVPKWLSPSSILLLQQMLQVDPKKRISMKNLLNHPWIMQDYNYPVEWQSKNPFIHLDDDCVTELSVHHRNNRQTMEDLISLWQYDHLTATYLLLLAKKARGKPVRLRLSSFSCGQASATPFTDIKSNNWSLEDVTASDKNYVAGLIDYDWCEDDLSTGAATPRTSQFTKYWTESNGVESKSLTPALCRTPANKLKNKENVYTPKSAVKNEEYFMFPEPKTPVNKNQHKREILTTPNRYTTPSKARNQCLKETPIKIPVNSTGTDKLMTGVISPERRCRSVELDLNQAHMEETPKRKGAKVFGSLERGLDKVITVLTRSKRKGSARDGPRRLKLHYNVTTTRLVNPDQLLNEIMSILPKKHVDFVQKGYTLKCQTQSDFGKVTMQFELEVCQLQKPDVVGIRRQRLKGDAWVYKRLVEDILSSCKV
Description: as §1

[13] = target: MKK1 (Homo sapiens (Human), UniProt Q02750); experiment: kinase panel residual activity test; conditions: compound at 10 μM
Description: as §1

[14] = target: MST2 (Homo sapiens (Human), UniProt Q13188); experiment: kinase panel residual activity test; conditions: compound at 10 μM
MST2, sequence (Q13188 whole entry, species assumed): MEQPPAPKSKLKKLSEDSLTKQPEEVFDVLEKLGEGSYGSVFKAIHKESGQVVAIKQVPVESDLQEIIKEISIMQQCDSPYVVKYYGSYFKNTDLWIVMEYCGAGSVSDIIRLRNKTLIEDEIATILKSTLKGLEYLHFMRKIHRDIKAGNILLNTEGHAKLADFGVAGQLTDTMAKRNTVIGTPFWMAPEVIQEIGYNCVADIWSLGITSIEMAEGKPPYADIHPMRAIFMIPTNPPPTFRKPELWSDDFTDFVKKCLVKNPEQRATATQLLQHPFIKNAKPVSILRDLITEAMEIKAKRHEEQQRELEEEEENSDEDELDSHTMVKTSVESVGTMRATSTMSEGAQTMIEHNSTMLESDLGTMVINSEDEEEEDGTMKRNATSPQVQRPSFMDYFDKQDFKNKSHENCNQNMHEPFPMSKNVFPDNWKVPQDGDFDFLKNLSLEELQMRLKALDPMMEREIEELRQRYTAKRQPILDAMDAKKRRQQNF
Description: as §1

[15] = target: NEK6 (Homo sapiens (Human), UniProt Q9HC98); experiment: kinase panel residual activity test; conditions: compound at 10 μM
Description: as §1

[16] = target: PAK5 (Homo sapiens (Human), UniProt Q9P286); experiment: kinase panel residual activity test; conditions: compound at 10 μM
Description: as §1

[17] = target: PDK1 (Homo sapiens (Human), UniProt O15530); experiment: kinase panel residual activity test; conditions: compound at 10 μM
PDK1, sequence (O15530 whole entry): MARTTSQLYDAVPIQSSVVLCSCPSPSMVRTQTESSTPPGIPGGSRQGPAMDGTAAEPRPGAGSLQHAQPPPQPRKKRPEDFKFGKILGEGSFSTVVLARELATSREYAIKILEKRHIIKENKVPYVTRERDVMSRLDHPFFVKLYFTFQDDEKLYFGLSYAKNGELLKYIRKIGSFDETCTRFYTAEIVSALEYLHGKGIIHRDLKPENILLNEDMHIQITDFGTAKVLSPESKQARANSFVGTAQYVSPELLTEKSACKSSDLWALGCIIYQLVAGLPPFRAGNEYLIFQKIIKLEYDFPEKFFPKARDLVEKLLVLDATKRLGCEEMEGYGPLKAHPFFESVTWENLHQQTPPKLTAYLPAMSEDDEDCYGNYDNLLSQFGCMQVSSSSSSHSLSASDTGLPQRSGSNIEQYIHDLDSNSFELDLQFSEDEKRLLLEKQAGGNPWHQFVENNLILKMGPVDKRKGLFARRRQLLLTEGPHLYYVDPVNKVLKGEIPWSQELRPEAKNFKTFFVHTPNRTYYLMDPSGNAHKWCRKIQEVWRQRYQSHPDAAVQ
Description: as §1

[18] = target: PKBb (Homo sapiens (Human), UniProt P31751); experiment: kinase panel residual activity test; conditions: compound at 10 μM
PKBb, sequence (P31751 whole entry): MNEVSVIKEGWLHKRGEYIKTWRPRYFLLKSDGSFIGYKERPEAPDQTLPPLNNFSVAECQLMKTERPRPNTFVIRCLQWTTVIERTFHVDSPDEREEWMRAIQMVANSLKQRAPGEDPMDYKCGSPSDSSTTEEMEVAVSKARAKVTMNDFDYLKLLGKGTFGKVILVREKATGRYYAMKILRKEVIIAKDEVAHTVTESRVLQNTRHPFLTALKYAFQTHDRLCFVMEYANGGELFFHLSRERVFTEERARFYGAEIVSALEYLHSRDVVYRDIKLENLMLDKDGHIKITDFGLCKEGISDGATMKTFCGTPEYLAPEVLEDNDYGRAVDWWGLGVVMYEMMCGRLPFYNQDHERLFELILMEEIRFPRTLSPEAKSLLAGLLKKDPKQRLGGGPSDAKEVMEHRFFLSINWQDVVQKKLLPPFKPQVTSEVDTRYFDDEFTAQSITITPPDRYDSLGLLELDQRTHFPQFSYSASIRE
Description: as §1

[19] = target: PLK1 (Homo sapiens (Human), UniProt P53350); experiment: kinase panel residual activity test; conditions: compound at 10 μM
Description: as §1

[20] = target: ROCK2 (Homo sapiens (Human), UniProt O75116); experiment: kinase panel residual activity test; conditions: compound at 10 μM
Description: as §1

[21] = target: RSK1 (Homo sapiens (Human), UniProt Q15418); experiment: kinase panel residual activity test; conditions: compound at 10 μM
Description: as §1

[22] = target: RSK2 (Homo sapiens (Human), UniProt P51812); experiment: kinase panel residual activity test; conditions: compound at 10 μM
Description: as §1

[23] = target: S6K1 (Homo sapiens (Human), UniProt P23443); experiment: kinase panel residual activity test; conditions: compound at 10 μM
S6K1, sequence (P23443 whole entry, species assumed): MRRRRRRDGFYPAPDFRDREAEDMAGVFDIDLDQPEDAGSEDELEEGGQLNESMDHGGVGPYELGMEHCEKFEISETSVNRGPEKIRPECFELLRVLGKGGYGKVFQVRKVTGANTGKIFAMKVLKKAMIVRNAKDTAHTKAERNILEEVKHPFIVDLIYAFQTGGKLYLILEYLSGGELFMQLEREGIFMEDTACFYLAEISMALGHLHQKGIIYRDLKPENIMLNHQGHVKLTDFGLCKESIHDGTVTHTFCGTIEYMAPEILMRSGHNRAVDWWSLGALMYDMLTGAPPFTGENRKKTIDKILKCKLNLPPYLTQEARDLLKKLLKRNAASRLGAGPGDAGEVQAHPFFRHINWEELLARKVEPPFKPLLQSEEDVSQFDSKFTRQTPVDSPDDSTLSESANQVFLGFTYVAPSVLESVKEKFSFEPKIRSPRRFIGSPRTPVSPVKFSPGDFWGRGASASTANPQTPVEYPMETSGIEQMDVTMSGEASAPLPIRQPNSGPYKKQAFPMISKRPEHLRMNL
Description: as §1

[24] = target: Src (Homo sapiens (Human), UniProt P12931); experiment: kinase panel residual activity test; conditions: compound at 10 μM
Description: as §1

[25] = target: p38a MAPK (Homo sapiens (Human), UniProt Q16539); experiment: kinase panel residual activity test; conditions: compound at 10 μM
Description: as §1

[26] = target: p38g MAPK (Homo sapiens (Human), UniProt P53778); experiment: kinase panel residual activity test; conditions: compound at 10 μM
p38g MAPK, sequence (P53778 whole entry): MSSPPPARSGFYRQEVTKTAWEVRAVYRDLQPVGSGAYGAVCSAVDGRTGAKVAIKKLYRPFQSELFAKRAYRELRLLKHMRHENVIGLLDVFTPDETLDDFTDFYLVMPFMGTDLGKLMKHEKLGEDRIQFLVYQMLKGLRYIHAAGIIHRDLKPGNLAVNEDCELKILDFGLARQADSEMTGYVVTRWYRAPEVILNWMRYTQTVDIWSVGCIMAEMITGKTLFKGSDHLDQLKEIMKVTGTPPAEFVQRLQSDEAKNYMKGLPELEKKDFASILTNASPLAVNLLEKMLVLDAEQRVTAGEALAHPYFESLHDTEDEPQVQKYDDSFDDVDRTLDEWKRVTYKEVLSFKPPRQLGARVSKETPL
Description: as §1

[27] = target: PIM-1 (Homo sapiens (Human), UniProt P11309); experiment: inhibition test on kinase PIM-1 (residual activity, IC50)
PIM-1, sequence (P11309 whole entry, species assumed): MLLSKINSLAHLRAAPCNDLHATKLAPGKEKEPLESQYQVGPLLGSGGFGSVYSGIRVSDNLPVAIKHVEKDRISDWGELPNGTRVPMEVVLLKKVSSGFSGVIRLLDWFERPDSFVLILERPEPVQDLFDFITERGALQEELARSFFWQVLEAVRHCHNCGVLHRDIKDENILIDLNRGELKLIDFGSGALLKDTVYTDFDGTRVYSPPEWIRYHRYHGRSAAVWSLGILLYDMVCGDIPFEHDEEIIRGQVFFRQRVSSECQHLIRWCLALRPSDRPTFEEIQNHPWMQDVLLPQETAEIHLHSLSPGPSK
Description: as §1
(§2) The results in terms of residual activity of the kinases after being placed in contact with the compounds of Examples 2, 3 and 5, at a concentration of 10 μM (10 μmol/L), are shown in Table 1 below.
(§3) The higher the residual activity of the kinase tested, the lower the inhibitory activity of the test compounds on the tested kinase.
(§4) The compounds according to the invention were then tested on the kinases PIM-1, PIM-2 and PIM-3.
(§5) The results in terms of percentage of residual activity after placing the compounds according to the invention in contact with each of the kinases PIM-1, PIM-2 and PIM-3 are given in Table 2 below.
(§6) The higher the residual activity, the lower the inhibitory activity of the test compounds.
(§7) The mean inhibitory concentrations (IC50) of certain preferred compounds of the invention were determined in the following manner: the IC50 values were measured after performing the inhibition tests on the kinases PIM-1, PIM-2 and PIM-3 at ten different concentrations for each test compound, and the IC50 value was determined from the dose-inhibition curves obtained.

[28] = target: PIM-2 (Homo sapiens (Human), UniProt Q9P1W9); experiment: inhibition test on kinase PIM-2 (residual activity, IC50)
PIM-2, sequence (Q9P1W9 whole entry, species assumed): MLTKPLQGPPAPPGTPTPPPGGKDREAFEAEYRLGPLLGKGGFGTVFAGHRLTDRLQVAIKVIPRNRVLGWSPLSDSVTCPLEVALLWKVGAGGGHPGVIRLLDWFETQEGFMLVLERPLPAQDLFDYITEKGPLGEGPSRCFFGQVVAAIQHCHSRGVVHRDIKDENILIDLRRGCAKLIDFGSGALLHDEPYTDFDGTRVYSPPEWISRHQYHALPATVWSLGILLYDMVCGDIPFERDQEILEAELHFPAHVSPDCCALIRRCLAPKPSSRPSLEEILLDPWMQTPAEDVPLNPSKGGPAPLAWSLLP
Description: as §1, §2, §3, §4, §5, §6, §7

[29] = target: PIM-3 (Homo sapiens (Human), UniProt Q86V86); experiment: inhibition test on kinase PIM-3 (residual activity, IC50)
Description: as §1, §2, §3, §4, §5, §6, §7

[30] = compound at 10 μM, Table 1 panel, read-out: % residual activity PIM-1
[31] = product at 10 μmol/L, Table 2, N.I. = not inhibitory, read-out: Percentage of residual activity PIM-1
[32] = ten concentrations, dose-inhibition curve
[33] = compound at 10 μM, Table 1 panel, read-out: % residual activity PIM-2
[34] = product at 10 μmol/L, Table 2, N.I. = not inhibitory, read-out: Percentage of residual activity PIM-2
[35] = compound at 10 μM, Table 1 panel, read-out: % residual activity PIM-3
[36] = product at 10 μmol/L, Table 2, N.I. = not inhibitory, read-out: Percentage of residual activity PIM-3

NC(=O)c1c[nH]c2c1ccc1c3ccccc3[nH]c12 [Example 5, 1,10-dihydropyrrolo[2,3-a]carbazole-3-carboxamide]
% residual activity AMPK [1]: 85%
remaining activity at 10 µM [2]: 61%
remaining activity at 10 µM [3]: 113%
remaining activity at 10 µM [4]: 44%
% residual activity CK1 [5]: 96%
% residual activity CK2 [6]: 77%
remaining activity at 10 µM [7]: 65%
remaining activity at 10 µM [8]: 93%
remaining activity at 10 µM [9]: 46%
remaining activity at 10 µM [10]: 91%
remaining activity at 10 µM [11]: 78%
remaining activity at 10 µM [12]: 80%
remaining activity at 10 µM [13]: 80%
remaining activity at 10 µM [14]: 76%
remaining activity at 10 µM [15]: 83%
remaining activity at 10 µM [16]: 70%
remaining activity at 10 µM [17]: 67%
remaining activity at 10 µM [18]: 103%
remaining activity at 10 µM [19]: 100%
remaining activity at 10 µM [20]: 48%
remaining activity at 10 µM [21]: 79%
remaining activity at 10 µM [22]: 97%
remaining activity at 10 µM [23]: 72%
remaining activity at 10 µM [24]: 96%
remaining activity at 10 µM [25]: 96%
remaining activity at 10 µM [26]: 96%
remaining activity at 10 µM [27, 30]: 9%
remaining activity at 10 µM [27, 31]: 9%
IC50 [27, 32]: 780 nM
remaining activity at 10 µM [28, 33]: 27%
remaining activity at 10 µM [28, 34]: 27%
remaining activity at 10 µM [29, 35]: 9%
remaining activity at 10 µM [29, 36]: 9%
IC50 [29, 32]: 210 nM

O=Cc1c[nH]c2c1ccc1c3ccccc3[nH]c12 [Example 3, 1,10-dihydropyrrolo[2,3-a]carbazole-3-carbaldehyde]
% residual activity AMPK [1]: 59%
remaining activity at 10 µM [2]: 79%
remaining activity at 10 µM [3]: 97%
remaining activity at 10 µM [4]: 38%
remaining activity at 10 µM [7]: 74%
remaining activity at 10 µM [9]: 20%
remaining activity at 10 µM [10]: 88%
remaining activity at 10 µM [12]: 61%
remaining activity at 10 µM [14]: 63%
remaining activity at 10 µM [15]: 78%
remaining activity at 10 µM [16]: 87%
remaining activity at 10 µM [17]: 76%
remaining activity at 10 µM [18]: 98%
remaining activity at 10 µM [19]: 91%
remaining activity at 10 µM [22]: 124%
remaining activity at 10 µM [23]: 38%
remaining activity at 10 µM [24]: 85%
remaining activity at 10 µM [25]: 102%
remaining activity at 10 µM [26]: 74%

c1ccc2c(c1)[nH]c1c2ccc2cc[nH]c21 [Example 2, 1,10-dihydropyrrolo[2,3-a]carbazole]
% residual activity AMPK [1]: 80%
remaining activity at 10 µM [2]: 85%
remaining activity at 10 µM [3]: 123%
remaining activity at 10 µM [4]: 58%
% residual activity CK1 [5]: 107%
% residual activity CK2 [6]: 91%
remaining activity at 10 µM [7]: 98%
remaining activity at 10 µM [8]: 94%
remaining activity at 10 µM [9]: 55%
remaining activity at 10 µM [10]: 111%
remaining activity at 10 µM [11]: 88%
remaining activity at 10 µM [12]: 93%
remaining activity at 10 µM [13]: 87%
remaining activity at 10 µM [14]: 82%
remaining activity at 10 µM [15]: 90%
remaining activity at 10 µM [16]: 82%
remaining activity at 10 µM [17]: 86%
remaining activity at 10 µM [18]: 107%
remaining activity at 10 µM [19]: 111%
remaining activity at 10 µM [20]: 86%
remaining activity at 10 µM [21]: 105%
remaining activity at 10 µM [22]: 129%
remaining activity at 10 µM [23]: 89%
remaining activity at 10 µM [24]: 98%
remaining activity at 10 µM [25]: 108%
remaining activity at 10 µM [26]: 111%
remaining activity at 10 µM [27, 30]: 20%
remaining activity at 10 µM [27, 31]: 20%
remaining activity at 10 µM [28, 33]: 62%
remaining activity at 10 µM [28, 34]: 62%
remaining activity at 10 µM [29, 35]: 10%
remaining activity at 10 µM [29, 36]: 10%
